In patent publication US10738028B2, “Spiro three-membered ring, spiro five-membered ring peptide deformylase inhibitor and use thereof in antibacteria and anti-tumor” (priority 2016, dated 2020):
Converted amounts (≈) assume the structure as drawn.

Key:
Format in all cases: cell-based
[1] = system: methicillin-sensitive Staphylococcus epidermidis (MSSE); experiment: MIC, two-fold agar dilution (CLSI), clinical isolates
Description: (§1) 1. The invention adopts the two-fold agar dilution method recommended by the operating procedure of antimicrobial susceptibility testing set by American Clinical and Laboratory Standards Institute (CLSI) to determine the Minimum Inhibitory Concentration (MIC) of the test samples against the tested strains.

[2] = system: Enterococcus faecalis (EFA); experiment: as above
Description: as §1

[3] = system: Enterococcus faecium (EFM); experiment: as above
Description: as §1

[4] = system: Streptococcus pneoumoniae (SPN); experiment: as above
Description: as §1

[5] = system: methicillin-resistant Staphylococcus epidermidis (MRSE); experiment: as above
Description: as §1

[6] = system: methicillin-sensitive Staphylococcus aureus (MSSA); experiment: as above
Description: as §1

[7] = system: Moraxella catarrhalis (BCA); experiment: as above
Description: as §1

[8] = system: Escherichia coli (including ESBLs, non-ESBLs); experiment: as above
Description: as §1

[9] = system: methicillin-resistant Staphylococcus aureus (MRSA); experiment: as above
Description: as §1

[10] = system: HCT-116 colorectal cancer cell line; experiment: CCK-8 proliferation inhibition; settings: Homo sapiens, HCT-116, 72 h, concentration of 30 μM; 72 hours; CCK-8; read-out: HCT116 inhibition rate/%
Experimental: (1) HCT-116 colorectal cancer cell line, A549 lung cancer cell line, MGC-803 gastric cancer cell line, BEL-7402 liver cancer cell line, Jurkat T cell leukemia cell line, HL60 acute myeloid leukemia cell line, Hela cervical cancer cell line, MCF-7 breast cancer cell line, PC3 prostate cancer cell line and SAOS-2 osteosarcoma cell line were made into single cell suspension, 180 μL of which was inoculated into 96-well culture plate, which was cultured overnight in CO2 incubator (37° C., 5% CO2, 95% air).
(2) Each of the spiro three-membered ring, spiro five membered ring peptide deformylase inhibitors was dissolved in DMSO, and was further formulated into drug solution with required different final concentration using corresponding cell culture medium. The drug solutions were added to the above cells respectively (20 μL/well), with the control group added with 1‰ DMSO, and cultured in a CO2 incubator for 72 hours.
(3) After incubation for 72 hours, the culture solution was decanted, and 100 μL of 1:10 diluted CCK-8 solution was added.
Wherein, in step (1), the concentration of the single cell suspension was 2000 cells/well.
Wherein, in step (2), HCT-116 cells were cultured in McCoy's 5A medium (containing 10% newborn bovine serum, 1% double antibody); A549 and PC3 cells were cultured in F12 medium (containing 10% newborn bovine serum, 1% double antibody); MGC-803, BEL-7402, SAOS-2, Jurkat and HL60 cells were cultured in 1640 medium (containing 10% newborn bovine serum, 1% double antibody); and MCF-7 and Hela cells were cultured in DMEM high glucose medium (containing 10% newborn bovine serum, 1% double antibody).

## CCCC[C@H](CN(O)C=O)C(=O)N1CC2(CC2)C[C@H]1C(=O)Nc1ccncn1 [Example 16, (S)-5-((R)-2-((N-hydroxyformamido)methyl)hexanoyl)-N-(pyrimidin-4-yl)-5-spiro[2.4]heptane-6-carboxamide]
[1]; strain MSSE 15-3
  MIC (anti-bacterial activity): 1 µg/mL (≈ 2.57 µM)
[1]; strain MSSE 15-4
  MIC (anti-bacterial activity): 0.06 µg/mL (≈ 0.154 µM)
[1]; strain MSSE 15-5
  MIC (anti-bacterial activity): 0.06 µg/mL (≈ 0.154 µM)
[1]; strain MSSE 15-6
  MIC (anti-bacterial activity): 0.06 µg/mL (≈ 0.154 µM)
[2]; strain EFA 15-1
  MIC (anti-bacterial activity): 4 µg/mL (≈ 10.3 µM)
[2]; strain EFA 15-2
  MIC (anti-bacterial activity): 4 µg/mL (≈ 10.3 µM)
[2]; strain EFA 15-3
  MIC (anti-bacterial activity): 0.25 µg/mL (≈ 0.642 µM)
[2]; strain EFA 15-4
  MIC (anti-bacterial activity): 4 µg/mL (≈ 10.3 µM)
[2]; strain EFA 15-5
  MIC (anti-bacterial activity): 4 µg/mL (≈ 10.3 µM)
[2]; strain EFA 15-6
  MIC (anti-bacterial activity): 4 µg/mL (≈ 10.3 µM)
[2]; strain EFA 15-9
  MIC (anti-bacterial activity): 4 µg/mL (≈ 10.3 µM)
[3]; strain EFM 15-1
  MIC (anti-bacterial activity): 0.5 µg/mL (≈ 1.28 µM)
[3]; strain EFM 15-2
  MIC (anti-bacterial activity): 1 µg/mL (≈ 2.57 µM)
[3]; strain EFM 15-3
  MIC (anti-bacterial activity): 0.25 µg/mL (≈ 0.642 µM)
[3]; strain EFM 15-4
  MIC (anti-bacterial activity): 2 µg/mL (≈ 5.14 µM)
[3]; strain EFM 15-5
  MIC (anti-bacterial activity): 0.25 µg/mL (≈ 0.642 µM)
[3]; strain EFM 15-6
  MIC (anti-bacterial activity): 2 µg/mL (≈ 5.14 µM)
[4]; strain SPN 16-2
  MIC (anti-bacterial activity): 4 µg/mL (≈ 10.3 µM)
[4]; strain SPN 16-4
  MIC (anti-bacterial activity): 0.25 µg/mL (≈ 0.642 µM)
[5]; strain MRSE 15-1
  MIC (anti-bacterial activity): 0.06 µg/mL (≈ 0.154 µM)
[5]; strain MRSE 15-2
  MIC (anti-bacterial activity): 1 µg/mL (≈ 2.57 µM)
[5]; strain MRSE 15-3
  MIC (anti-bacterial activity): 0.25 µg/mL (≈ 0.642 µM)
[5]; strain MRSE 15-7
  MIC (anti-bacterial activity): 0.25 µg/mL (≈ 0.642 µM)
[6]; strain MSSA 15-3
  MIC (anti-bacterial activity): 1 µg/mL (≈ 2.57 µM)
[6]; strain MSSA 15-4
  MIC (anti-bacterial activity): 0.25 µg/mL (≈ 0.642 µM)
[6]; strain MSSA 15-5
  MIC (anti-bacterial activity): 0.125 µg/mL (≈ 0.321 µM)
[6]; strain MSSA 15-6
  MIC (anti-bacterial activity): 1 µg/mL (≈ 2.57 µM)
[7]; strain BCA 14-1
  MIC (anti-bacterial activity): 0.5 µg/mL (≈ 1.28 µM)
[7]; strain BCA 14-4
  MIC (anti-bacterial activity): 1 µg/mL (≈ 2.57 µM)
[7]; strain BCA 14-5
  MIC (anti-bacterial activity): 0.25 µg/mL (≈ 0.642 µM)
[7]; strain BCA 14-6
  MIC (anti-bacterial activity): 1 µg/mL (≈ 2.57 µM)
[7]; strain BCA 14-7
  MIC (anti-bacterial activity): 0.25 µg/mL (≈ 0.642 µM)
[7]; strain BCA 14-8
  MIC (anti-bacterial activity): 0.25 µg/mL (≈ 0.642 µM)
[7]; strain BCA 14-10
  MIC (anti-bacterial activity): 0.25 µg/mL (≈ 0.642 µM)
[8]; strain ECO+ 15-1
  MIC (anti-bacterial activity): 32 µg/mL (≈ 82.2 µM)
[8]; strain ECO+ 15-2
  MIC (anti-bacterial activity): > 32 µg/mL
[8]; strain ECO+ 15-3
  MIC (anti-bacterial activity): > 32 µg/mL
[8]; strain ECO+ 15-4
  MIC (anti-bacterial activity): > 32 µg/mL
[8]; strain ECO− 15-1
  MIC (anti-bacterial activity): 32 µg/mL (≈ 82.2 µM)
[8]; strain ECO− 15-2
  MIC (anti-bacterial activity): > 32 µg/mL
[8]; strain ECO− 15-3
  MIC (anti-bacterial activity): > 32 µg/mL
[8]; strain ECO− 15-4
  MIC (anti-bacterial activity): > 32 µg/mL
[9]; strain MRSA 15-1
  MIC (anti-bacterial activity): 0.06 µg/mL (≈ 0.154 µM)
[9]; strain MRSA 15-2
  MIC (anti-bacterial activity): 0.25 µg/mL (≈ 0.642 µM)
[9]; strain MRSA 15-3
  MIC (anti-bacterial activity): 0.25 µg/mL (≈ 0.642 µM)
[9]; strain MRSA 15-4
  MIC (anti-bacterial activity): 1 µg/mL (≈ 2.57 µM)
[10]
  inhibition at 30 µM: 24%

## CCCC[C@H](CN(O)C=O)C(=O)N1CC2(CC2)C[C@H]1C(=O)Nc1ccno1 [Example 17]
[1]; strain MSSE 15-3
  MIC (anti-bacterial activity): 1 µg/mL (≈ 2.64 µM)
[1]; strain MSSE 15-4
  MIC (anti-bacterial activity): 0.5 µg/mL (≈ 1.32 µM)
[1]; strain MSSE 15-5
  MIC (anti-bacterial activity): 0.5 µg/mL (≈ 1.32 µM)
[1]; strain MSSE 15-6
  MIC (anti-bacterial activity): 0.25 µg/mL (≈ 0.661 µM)
[2]; strain EFA 15-1
  MIC (anti-bacterial activity): 8 µg/mL (≈ 21.1 µM)
[2]; strain EFA 15-2
  MIC (anti-bacterial activity): 8 µg/mL (≈ 21.1 µM)
[2]; strain EFA 15-3
  MIC (anti-bacterial activity): 2 µg/mL (≈ 5.29 µM)
[2]; strain EFA 15-4
  MIC (anti-bacterial activity): 8 µg/mL (≈ 21.1 µM)
[2]; strain EFA 15-5
  MIC (anti-bacterial activity): 8 µg/mL (≈ 21.1 µM)
[2]; strain EFA 15-6
  MIC (anti-bacterial activity): 8 µg/mL (≈ 21.1 µM)
[2]; strain EFA 15-9
  MIC (anti-bacterial activity): 8 µg/mL (≈ 21.1 µM)
[3]; strain EFM 15-1
  MIC (anti-bacterial activity): 1 µg/mL (≈ 2.64 µM)
[3]; strain EFM 15-2
  MIC (anti-bacterial activity): 2 µg/mL (≈ 5.29 µM)
[3]; strain EFM 15-3
  MIC (anti-bacterial activity): 0.5 µg/mL (≈ 1.32 µM)
[3]; strain EFM 15-4
  MIC (anti-bacterial activity): 2 µg/mL (≈ 5.29 µM)
[3]; strain EFM 15-5
  MIC (anti-bacterial activity): 1 µg/mL (≈ 2.64 µM)
[3]; strain EFM 15-6
  MIC (anti-bacterial activity): 2 µg/mL (≈ 5.29 µM)
[4]; strain SPN 16-2
  MIC (anti-bacterial activity): 8 µg/mL (≈ 21.1 µM)
[4]; strain SPN 16-4
  MIC (anti-bacterial activity): 1 µg/mL (≈ 2.64 µM)
[5]; strain MRSE 15-1
  MIC (anti-bacterial activity): 0.25 µg/mL (≈ 0.661 µM)
[5]; strain MRSE 15-2
  MIC (anti-bacterial activity): 0.5 µg/mL (≈ 1.32 µM)
[5]; strain MRSE 15-3
  MIC (anti-bacterial activity): 0.5 µg/mL (≈ 1.32 µM)
[5]; strain MRSE 15-7
  MIC (anti-bacterial activity): 1 µg/mL (≈ 2.64 µM)
[6]; strain MSSA 15-3
  MIC (anti-bacterial activity): 1 µg/mL (≈ 2.64 µM)
[6]; strain MSSA 15-4
  MIC (anti-bacterial activity): 1 µg/mL (≈ 2.64 µM)
[6]; strain MSSA 15-5
  MIC (anti-bacterial activity): 0.25 µg/mL (≈ 0.661 µM)
[6]; strain MSSA 15-6
  MIC (anti-bacterial activity): 1 µg/mL (≈ 2.64 µM)
[7]; strain BCA 14-1
  MIC (anti-bacterial activity): 4 µg/mL (≈ 10.6 µM)
[7]; strain BCA 14-4
  MIC (anti-bacterial activity): 2 µg/mL (≈ 5.29 µM)
[7]; strain BCA 14-5
  MIC (anti-bacterial activity): 1 µg/mL (≈ 2.64 µM)
[7]; strain BCA 14-6
  MIC (anti-bacterial activity): 2 µg/mL (≈ 5.29 µM)
[7]; strain BCA 14-7
  MIC (anti-bacterial activity): 1 µg/mL (≈ 2.64 µM)
[7]; strain BCA 14-8
  MIC (anti-bacterial activity): 2 µg/mL (≈ 5.29 µM)
[7]; strain BCA 14-10
  MIC (anti-bacterial activity): 1 µg/mL (≈ 2.64 µM)
[8]; strain ECO+ 15-1
  MIC (anti-bacterial activity): 32 µg/mL (≈ 84.6 µM)
[8]; strain ECO+ 15-2
  MIC (anti-bacterial activity): 32 µg/mL (≈ 84.6 µM)
[8]; strain ECO+ 15-3
  MIC (anti-bacterial activity): > 32 µg/mL
[8]; strain ECO+ 15-4
  MIC (anti-bacterial activity): > 32 µg/mL
[8]; strain ECO− 15-1
  MIC (anti-bacterial activity): 16 µg/mL (≈ 42.3 µM)
[8]; strain ECO− 15-2
  MIC (anti-bacterial activity): 32 µg/mL (≈ 84.6 µM)
[8]; strain ECO− 15-3
  MIC (anti-bacterial activity): > 32 µg/mL
[8]; strain ECO− 15-4
  MIC (anti-bacterial activity): 32 µg/mL (≈ 84.6 µM)
[9]; strain MRSA 15-1
  MIC (anti-bacterial activity): 1 µg/mL (≈ 2.64 µM)
[9]; strain MRSA 15-2
  MIC (anti-bacterial activity): 1 µg/mL (≈ 2.64 µM)
[9]; strain MRSA 15-3
  MIC (anti-bacterial activity): 1 µg/mL (≈ 2.64 µM)
[9]; strain MRSA 15-4
  MIC (anti-bacterial activity): 1 µg/mL (≈ 2.64 µM)
[10]
  inhibition at 30 µM: 13%
